# Species on record: Rattus norvegicus
# Test: DrugMatrix - Regimen: Daily Repeat
# Type: toxicity, organism-based, Sprague-Dawley
# Design: regimen Daily Repeat, gender Male, age 6-8 weeks
# Conditions: in vivo, po, route oral GAVAGE, vehicle .5 % CMC; for ABSOLUTE BASOPHIL / ABSOLUTE EOSINOPHIL / ABSOLUTE LYMPHOCYTE / ABSOLUTE MONOCYTE / ABSOLUTE SEGMENTED NEUTROPHIL / BASOPHIL / EOSINOPHIL / ERYTHROCYTE COUNT / HEMATOCRIT / HEMOGLOBIN / LEUKOCYTE COUNT / LYMPHOCYTE / MEAN CORPUSCULAR HEMOGLOBIN / MEAN CORPUSCULAR HEMOGLOBIN CONCENTRATION / MEAN CORPUSCULAR VOLUME / MONOCYTE / NEUTROPHIL / NUCLEATED RED BLOOD CELLS / PLATELET COUNT: tissue Blood; for ALANINE AMINOTRANSFERASE / ALBUMIN / ALKALINE PHOSPHATASE / ASPARTATE AMINOTRANSFERASE / BLOOD UREA NITROGEN / CARBON DIOXIDE / CHLORIDE / CHOLESTEROL / CREATINE PHOSPHOKINASE / CREATININE / GLUCOSE / LACTATE DEHYDROGENASE / LIPASE / PHOSPHORUS / POTASSIUM / SODIUM / TOTAL BILIRUBIN / TOTAL PROTEIN / URIC ACID: tissue Plasma
# [1] = 20 mg/kg, 120 h, dose level Low, time 5 day
# [2] = 1600 mg/kg, 72 h, dose level High, time 3 day
# [3] = 1600 mg/kg, 120 h, dose level High, time 5 day
structure (smiles),measurement,setting,value
NC(=O)N1c2ccccc2CC(=O)c2ccccc21 [OXCARBAZEPINE],ABSOLUTE BASOPHIL,[1],0 CELLS/uL
same,ABSOLUTE EOSINOPHIL,[1],112 CELLS/uL
same,ABSOLUTE LYMPHOCYTE,[1],14390.67 CELLS/uL
same,ABSOLUTE MONOCYTE,[1],0 CELLS/uL
same,ABSOLUTE SEGMENTED NEUTROPHIL,[1],964 CELLS/uL
same,BASOPHIL,[1],0%
same,EOSINOPHIL,[1],0.67%
same,ERYTHROCYTE COUNT,[1],5.76 x10E6/uL
same,HEMATOCRIT,[1],35.97%
same,HEMOGLOBIN,[1],14.53 G/DL
same,LEUKOCYTE COUNT,[1],15.47 x10E3/uL
same,LYMPHOCYTE,[1],93.33%
same,MEAN CORPUSCULAR HEMOGLOBIN,[1],25.2 pg
same,MEAN CORPUSCULAR HEMOGLOBIN CONCENTRATION,[1],40.4 G/DL
same,MEAN CORPUSCULAR VOLUME,[1],62.37 fL
same,MONOCYTE,[1],0%
same,NEUTROPHIL,[1],6%
same,NUCLEATED RED BLOOD CELLS,[1],0.33 /100WBC
same,PLATELET COUNT,[1],1403.33 x10E3/uL
same,ALANINE AMINOTRANSFERASE,[1],47.67 u/L
same,ALBUMIN,[1],4.37 G/DL
same,ALKALINE PHOSPHATASE,[1],374.67 u/L
same,ASPARTATE AMINOTRANSFERASE,[1],83.33 u/L
same,BLOOD UREA NITROGEN,[1],17 mg/dL
same,CARBON DIOXIDE,[1],26.67 mmol/L
same,CHLORIDE,[1],102.33 MEQ/L
same,CHOLESTEROL,[1],67.67 mg/dL
same,CREATINE PHOSPHOKINASE,[1],246.33 u/L
same,CREATININE,[1],0.16 mg/dL
same,GLUCOSE,[1],163.33 mg/dL
same,LACTATE DEHYDROGENASE,[1],115.33 u/L
same,LIPASE,[1],8.67 u/L
same,PHOSPHORUS,[1],12.83 mg/dL
same,POTASSIUM,[1],6.85 MEQ/L
same,SODIUM,[1],146.7 MEQ/L
same,TOTAL BILIRUBIN,[1],0.17 mg/dL
same,TOTAL PROTEIN,[1],6.17 G/DL
same,URIC ACID,[1],2.23 mg/dL
same,ABSOLUTE BASOPHIL,[2],0 CELLS/uL
same,ABSOLUTE EOSINOPHIL,[2],0 CELLS/uL
same,ABSOLUTE LYMPHOCYTE,[2],14109.67 CELLS/uL
same,ABSOLUTE MONOCYTE,[2],56.33 CELLS/uL
same,ABSOLUTE SEGMENTED NEUTROPHIL,[2],1034 CELLS/uL
same,BASOPHIL,[2],0%
same,EOSINOPHIL,[2],0%
same,ERYTHROCYTE COUNT,[2],6.38 x10E6/uL
same,HEMATOCRIT,[2],39.5%
same,HEMOGLOBIN,[2],15.47 G/DL
same,LEUKOCYTE COUNT,[2],15.2 x10E3/uL
same,LYMPHOCYTE,[2],93.33%
same,MEAN CORPUSCULAR HEMOGLOBIN,[2],24.27 pg
same,MEAN CORPUSCULAR HEMOGLOBIN CONCENTRATION,[2],39.2 G/DL
same,MEAN CORPUSCULAR VOLUME,[2],61.93 fL
same,MONOCYTE,[2],0.33%
same,NEUTROPHIL,[2],6.33%
same,NUCLEATED RED BLOOD CELLS,[2],0 /100WBC
same,PLATELET COUNT,[2],1432 x10E3/uL
same,ALANINE AMINOTRANSFERASE,[2],82.67 u/L
same,ALBUMIN,[2],4.43 G/DL
same,ALKALINE PHOSPHATASE,[2],485.33 u/L
same,ASPARTATE AMINOTRANSFERASE,[2],91 u/L
same,BLOOD UREA NITROGEN,[2],16.33 mg/dL
same,CARBON DIOXIDE,[2],31 mmol/L
same,CHLORIDE,[2],101 MEQ/L
same,CHOLESTEROL,[2],73 mg/dL
same,CREATINE PHOSPHOKINASE,[2],195 u/L
same,CREATININE,[2],0.2 mg/dL
same,GLUCOSE,[2],116 mg/dL
same,LACTATE DEHYDROGENASE,[2],266 u/L
same,LIPASE,[2],11 u/L
same,PHOSPHORUS,[2],10.13 mg/dL
same,POTASSIUM,[2],6.83 MEQ/L
same,SODIUM,[2],145.67 MEQ/L
same,TOTAL BILIRUBIN,[2],0.17 mg/dL
same,TOTAL PROTEIN,[2],5.8 G/DL
same,URIC ACID,[2],1.43 mg/dL
same,ABSOLUTE BASOPHIL,[3],0 CELLS/uL
same,ABSOLUTE EOSINOPHIL,[3],0 CELLS/uL
same,ABSOLUTE LYMPHOCYTE,[3],15797.33 CELLS/uL
same,ABSOLUTE MONOCYTE,[3],212.67 CELLS/uL
same,ABSOLUTE SEGMENTED NEUTROPHIL,[3],2156.67 CELLS/uL
same,BASOPHIL,[3],0%
same,EOSINOPHIL,[3],0%
same,ERYTHROCYTE COUNT,[3],5.81 x10E6/uL
same,HEMATOCRIT,[3],36.23%
same,HEMOGLOBIN,[3],14.8 G/DL
same,LEUKOCYTE COUNT,[3],18.17 x10E3/uL
same,LYMPHOCYTE,[3],87.33%
same,MEAN CORPUSCULAR HEMOGLOBIN,[3],25.47 pg
same,MEAN CORPUSCULAR HEMOGLOBIN CONCENTRATION,[3],40.83 G/DL
same,MEAN CORPUSCULAR VOLUME,[3],62.33 fL
same,MONOCYTE,[3],1%
same,NEUTROPHIL,[3],11.67%
same,NUCLEATED RED BLOOD CELLS,[3],0 /100WBC
same,PLATELET COUNT,[3],1349.67 x10E3/uL
same,ALANINE AMINOTRANSFERASE,[3],60.67 u/L
same,ALBUMIN,[3],4.5 G/DL
same,ALKALINE PHOSPHATASE,[3],338.67 u/L
same,ASPARTATE AMINOTRANSFERASE,[3],86.33 u/L
same,BLOOD UREA NITROGEN,[3],17.33 mg/dL
same,CARBON DIOXIDE,[3],23.33 mmol/L
same,CHLORIDE,[3],99 MEQ/L
same,CHOLESTEROL,[3],93.67 mg/dL
same,CREATINE PHOSPHOKINASE,[3],336.33 u/L
same,CREATININE,[3],0.28 mg/dL
same,GLUCOSE,[3],123 mg/dL
same,LACTATE DEHYDROGENASE,[3],512.67 u/L
same,LIPASE,[3],13 u/L
same,PHOSPHORUS,[3],13.6 mg/dL
same,POTASSIUM,[3],7.68 MEQ/L
same,SODIUM,[3],142.17 MEQ/L
same,TOTAL BILIRUBIN,[3],0.23 mg/dL
same,TOTAL PROTEIN,[3],6.43 G/DL
same,URIC ACID,[3],2.07 mg/dL

# Source: ChEMBL document CHEMBL3885881, “DrugMatrix”
